Reference: BindingDB's records for patent US10188642 (Cancer Research Technology Limited, 2019)

Target: T1, Dual specificity protein kinase TTK (Homo sapiens, UniProt P33981)
T1 sequence (P33981 whole entry): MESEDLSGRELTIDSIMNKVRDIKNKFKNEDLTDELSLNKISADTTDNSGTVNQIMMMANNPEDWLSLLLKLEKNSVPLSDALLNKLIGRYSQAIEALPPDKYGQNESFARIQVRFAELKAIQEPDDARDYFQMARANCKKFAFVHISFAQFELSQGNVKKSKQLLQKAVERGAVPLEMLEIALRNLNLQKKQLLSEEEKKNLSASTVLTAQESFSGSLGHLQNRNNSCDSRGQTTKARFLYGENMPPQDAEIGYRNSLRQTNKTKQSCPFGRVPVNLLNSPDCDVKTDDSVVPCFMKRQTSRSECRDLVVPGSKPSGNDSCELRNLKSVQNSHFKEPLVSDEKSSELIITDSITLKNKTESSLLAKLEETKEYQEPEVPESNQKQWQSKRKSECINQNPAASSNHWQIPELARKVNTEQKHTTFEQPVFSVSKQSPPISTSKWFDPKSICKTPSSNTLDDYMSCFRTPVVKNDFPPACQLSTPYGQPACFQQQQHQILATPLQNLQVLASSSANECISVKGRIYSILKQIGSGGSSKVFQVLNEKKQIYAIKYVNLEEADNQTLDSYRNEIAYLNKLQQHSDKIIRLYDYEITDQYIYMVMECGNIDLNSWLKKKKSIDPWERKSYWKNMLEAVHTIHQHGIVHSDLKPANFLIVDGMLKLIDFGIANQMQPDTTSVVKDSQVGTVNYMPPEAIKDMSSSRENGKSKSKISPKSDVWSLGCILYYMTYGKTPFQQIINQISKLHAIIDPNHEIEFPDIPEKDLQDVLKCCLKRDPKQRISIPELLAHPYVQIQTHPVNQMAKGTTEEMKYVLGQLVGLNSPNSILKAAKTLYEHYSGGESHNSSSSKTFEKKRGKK
Experiment: Measurement of Inhibition of MPS1 Kinase
Description: The reaction was carried out for 60 min at room temperature and stopped by the addition of buffer (10 μl) containing 20 mM EDTA, 0.05% (v/v) Brij-35, in 0.1M HEPES-buffered saline (Free acid, Sigma, UK). […] The % inhibition of the compounds is calculated relative to the means of selected control wells. […] The % inhibitions at each concentration are then fitted to a 4 parameter logistic fit: y=(a+((b−a)/(1+((c/x^d)))) where a=asym min, b=asym max, c=IC50 and d=hill coefficient.

COc1cc(-c2nnc3n2CCN(C(=O)CC(C)(C)C)C3)ccc1Nc1cc2cc(-c3cnn(CC(C)(C)O)c3)ccc2cn1 [US10188642, Example 55]
IC50: 3 nM
